Tests used:
Assay in all cases: cells
CCRF-CEM = conditions: Homo sapiens, 48 h
HL-60(TB) = conditions: Homo sapiens, HL-60, 48 h
K-562 = conditions: Homo sapiens, K562, 48 h
MOLT-4 = conditions: Homo sapiens, MOLT-4, 48 h
A549/ATCC = conditions: Homo sapiens, A549, 48 h
EKVX = conditions: Homo sapiens, 48 h
HOP-92 = conditions: Homo sapiens, HOP-92, 48 h
NCI-H460 = conditions: Homo sapiens, NCI-H460, 48 h
NCI-H522 = conditions: Homo sapiens, NCI-H522, 48 h
COLO 205 = conditions: Homo sapiens, COLO 205, 48 h
HCC-2998 = conditions: Homo sapiens, HCC 2998, 48 h
HCT-116 = conditions: Homo sapiens, HCT-116, 48 h
HT29 = conditions: Homo sapiens, HT-29, 48 h
KM12 = conditions: Homo sapiens, KM12, 48 h
SF-268 = conditions: Homo sapiens, SF-268, 48 h
SF-539 = conditions: Homo sapiens, SF-539, 48 h
SNB-19 = conditions: Homo sapiens, SNB-19, 48 h
U251 = conditions: Homo sapiens, U-251, 48 h
LOX IMVI = conditions: Homo sapiens, 48 h
M14 = conditions: Homo sapiens, M14, 48 h
SK-MEL-2 = conditions: Homo sapiens, SK-MEL-2, 48 h
SK-MEL-28 = conditions: Homo sapiens, SK-MEL-28, 48 h
SK-MEL-5 = conditions: Homo sapiens, SK-MEL-5, 48 h
UACC-257 = conditions: Homo sapiens, UACC-257, 48 h
UACC-62 = conditions: Homo sapiens, UACC-62, 48 h
OVCAR-3 = conditions: Homo sapiens, OVCAR-3, 48 h
786-0 = conditions: Homo sapiens, 786-0, 48 h
A498 = conditions: Homo sapiens, A498, 48 h
CAKI-1 = conditions: Homo sapiens, CAKI-1, 48 h
SN12C = conditions: Homo sapiens, 48 h
UO-31 = conditions: Homo sapiens, UO-31, 48 h
PC-3 = conditions: Homo sapiens, PC-3, 48 h
MDA-MB-231/ATCC = conditions: Homo sapiens, MDA-MB-231, 48 h
HS 578T = conditions: Homo sapiens, 48 h
T-47D = conditions: Homo sapiens, T47D, 48 h
MDA-MB-468 = conditions: Homo sapiens, MDA-MB-468, 48 h

CN(C)c1nc(NCCNS(=O)(=O)c2ccc(C(=O)/C=C/c3ccc(Cl)cc3)cc2)nc(N2CCOCC2)n1 [23e]
GI50 (CCRF-CEM): 6.86 µM
CC50 (CCRF-CEM; read-out: LC50): > 100 µM
GI50 (HL-60(TB)): 14.7 µM
CC50 (HL-60(TB); read-out: LC50): > 100 µM
GI50 (K-562; K-562, 48 h): 3.71 µM
CC50 (K-562; read-out: LC50): > 100 µM
GI50 (MOLT-4): 3.38 µM
CC50 (MOLT-4; read-out: LC50): > 100 µM
GI50 (A549/ATCC): 14.4 µM
CC50 (A549/ATCC; read-out: LC50): 56.4 µM
GI50 (EKVX): 14.8 µM
CC50 (EKVX; read-out: LC50): 55.7 µM
GI50 (HOP-92): 15.1 µM
CC50 (HOP-92; read-out: LC50): 67.8 µM
GI50 (NCI-H460): 16.8 µM
CC50 (NCI-H460; read-out: LC50): 67.1 µM
GI50 (NCI-H522): 14 µM
CC50 (NCI-H522; read-out: LC50): 53.3 µM
GI50 (COLO 205): 16.7 µM
CC50 (COLO 205; read-out: LC50): 70.8 µM
GI50 (HCC-2998): 16.7 µM
CC50 (HCC-2998; read-out: LC50): 56.7 µM
GI50 (HCT-116): 11.7 µM
CC50 (HCT-116; read-out: LC50): 50.7 µM
GI50 (HT29): 3.21 µM
CC50 (HT29; read-out: LC50): 36.4 µM
GI50 (KM12): 16.9 µM
CC50 (KM12; read-out: LC50): > 100 µM
GI50 (SF-268): 17.7 µM
CC50 (SF-268; read-out: LC50): > 100 µM
GI50 (SF-539): 14.7 µM
CC50 (SF-539; read-out: LC50, SF-539, 48 h): 52.9 µM
GI50 (SNB-19): 14.2 µM
CC50 (SNB-19; read-out: LC50): 52.1 µM
GI50 (U251; U251, 48 h): 8.16 µM
CC50 (U251; read-out: LC50): 45.9 µM
GI50 (LOX IMVI): 1.71 µM
CC50 (LOX IMVI; read-out: LC50, LOX IMVI, 48 h): 6.13 µM
GI50 (M14): 14.1 µM
CC50 (M14; read-out: LC50): 56.9 µM
GI50 (SK-MEL-2): 16.5 µM
CC50 (SK-MEL-2; read-out: LC50): 56 µM
GI50 (SK-MEL-28): 15.5 µM
CC50 (SK-MEL-28; read-out: LC50): 53.9 µM
GI50 (SK-MEL-5): 16.3 µM
CC50 (SK-MEL-5; read-out: LC50): 55.6 µM
GI50 (UACC-257): 16.2 µM
CC50 (UACC-257; read-out: LC50): 55.7 µM
GI50 (UACC-62): 11.4 µM
CC50 (UACC-62; read-out: LC50): 49.1 µM
GI50 (OVCAR-3): 17.9 µM
CC50 (OVCAR-3; read-out: LC50): 70.5 µM
GI50 (786-0): 14.8 µM
CC50 (786-0; read-out: LC50): 55.9 µM
GI50 (A498): 12.4 µM
CC50 (A498; read-out: LC50): 50.8 µM
GI50 (CAKI-1): 11.2 µM
CC50 (CAKI-1; read-out: LC50): 54.7 µM
GI50 (SN12C): 14.4 µM
CC50 (SN12C; read-out: LC50): 53.8 µM
GI50 (UO-31): 11.4 µM
CC50 (UO-31; read-out: LC50): 48.4 µM
GI50 (PC-3): 13 µM
CC50 (PC-3; read-out: LC50): 67 µM
GI50 (MDA-MB-231/ATCC): 13.3 µM
CC50 (MDA-MB-231/ATCC; read-out: LC50): 52.7 µM
GI50 (HS 578T): 15.8 µM
CC50 (HS 578T; read-out: LC50): > 100 µM
GI50 (T-47D): 16.7 µM
CC50 (T-47D; read-out: LC50): > 100 µM
GI50 (MDA-MB-468): 11 µM
CC50 (MDA-MB-468; read-out: LC50): 56 µM

Reference: PMC11012124, “Synthesis of Novel Triazine-Based Chalcones and 8,9-dihydro-7H-pyrimido[4,5-b][1,4]diazepines as Potential Leads in the Search of Anticancer, Antibacterial and Antifungal Agents” (International Journal of Molecular Sciences, 2024)
